The test system of assay [1] is monocotyledonous and dicotyledonous test plants. In words: Post-emergence herbicidal action. Type of assay: in vivo. The settings on record: 250 g a.i./ha, about 18 days, rating 0-10. More on the design: key: 10=total damage; 0=no action; Ratings of from 10 to 7 (especially from 10 to 8) indicate good to very good herbicidal action. How it is done: Post-Emergence Herbicidal Action
In a greenhouse, monocotyledonous and dicotyledonous test plants are grown in standard soil in plastic pots and at the 4- to 6-leaf stage are sprayed with an aqueous suspension of the test compounds of formula I prepared from a 25% wettable powder (Example F3, b) according to WO 97/34485) or with an emulsion of the test compounds of formula I prepared from a 25% emulsifiable concentrate (Example F1, c) according to WO 97/34485), in a concentration corresponding to 125 g or 250 g of active ingredient/ha (500 litres of water/ha). The test plants are then grown on in a greenhouse under optimum conditions. After a test duration of about 18 days, the test is evaluated in accordance with a scale of nine ratings (10=total damage, 0=no action). Ratings of from 10 to 7 (especially from 10 to 8) indicate good to very good herbicidal action.

Assay [2] has the same test system. Briefly: Herbicidal action prior to emergence of the plants (pre-emergence action). Details: key: 10=total damage; 0=no action; Ratings of from 10 to 7 (especially from 10 to 8) indicate good to very good herbicidal action. The settings on record: 250 g a.i./ha, pre-emergence spray, evaluated after 3 weeks, scale 10=total damage, 0=no action. Type of assay: in vivo. The text has this:
Herbicidal Action Prior to Emergence of the Plants (Pre-Emergence Action)
Monocotyledonous and dicotyledonous test plants are sown in standard soil in plastic pots Immediately after sowing, the test compounds, in the form of an aqueous suspension (prepared from a 25% wettable powder (Example F3, b) according to WO 97/34485) or in the form of an emulsion (prepared from a 25% emulsifiable concentrate (Example F1, c)), are applied by spraying in a concentration corresponding to 125 g or 250 g of active ingredient/ha (500 litres of water/ha). The test plants are then grown in a greenhouse under optimum conditions. After a test duration of 3 weeks, the test is evaluated in accordance with a scale of nine ratings (10=total damage, 0=no action). Ratings of from 10 to 7 (especially from 10 to 8) indicate good to very good herbicidal action.

In the case of `CC(C)N1CC(=O)N(Cc2nc(C(F)(F)F)ccc2C(=O)c2cnn(C)c2O)C1=O` [Compound B1.170], in assay [1], the “Post-emergence action, Amaranthus” value is reported as 9; the “Post-emergence action, Chenopodium” value was 9; the “Post-emergence action, Echinochloa” value stood at 9; the “Post-emergence action, Euphorbia” value came out at 7. For the same compound, in assay [1], the “Post-emergence action, Ipomea” value amounted to 0; the “Post-emergence action, Sinapis” value is 9; the “Post-emergence action, Stellaria” value was found to be 9; the “Post-emergence action, Xanthium” value amounted to 6. Further, in assay [2], the “Pre-emergence action: Abutilon (rating)” value came out at 9, the “Pre-emergence action: Amaranthus (rating)” value stood at 9, the “Pre-emergence action: Chenopodium (rating)” value is listed as 10 and the “Pre-emergence action: Cyperus (rating)” value stood at 8. Also, in assay [2], the “Pre-emergence action: Echinochloa (rating)” value turned out to be 9, the “Pre-emergence action: Panicum (rating)” value is listed as 9, the “Pre-emergence action: Scirpus (rating)” value worked out at 9 and the “Pre-emergence action: Sida (rating)” value was found to be 9.

In the case of `Cc1nn(Cc2nc(C(F)(F)F)ccc2C(=O)C2=C(O)C(C)(C)C(=O)C(C)(C)C2=O)c(=O)o1` [Compound A8.008], in assay [1], the “Post-emergence action, Amaranthus” value was determined as 9; the “Post-emergence action, Chenopodium” value came out at 8; the “Post-emergence action, Echinochloa” value is 8; the “Post-emergence action, Euphorbia” value was 8. In assay [1], the “Post-emergence action, Ipomea” value is given as 9; the “Post-emergence action, Sinapis” value is 7; the “Post-emergence action, Stellaria” value was found to be 6; the “Post-emergence action, Xanthium” value was determined as 9. In assay [2], the “Pre-emergence action: Abutilon (rating)” value worked out at 10, the “Pre-emergence action: Chenopodium (rating)” value is given as 10, the “Pre-emergence action: Cyperus (rating)” value was determined as 0 and the “Pre-emergence action: Echinochloa (rating)” value was determined as 10. In addition, in assay [2], the “Pre-emergence action: Panicum (rating)” value came out at 10, the “Pre-emergence action: Scirpus (rating)” value is reported as 0 and the “Pre-emergence action: Sida (rating)” value stood at 10.

Consider `CSC(C)n1c(C)cc(=O)n1Cc1nc(C(F)(F)F)ccc1C(=O)C1=C(O)CCCC1=O` (racemic) [Compound A1.055], for which, in assay [2], the “Pre-emergence action: Abutilon (rating)” value turned out to be 10, the “Pre-emergence action: Amaranthus (rating)” value is on record as 0, the “Pre-emergence action: Chenopodium (rating)” value came to 10 and the “Pre-emergence action: Cyperus (rating)” value is listed as 10. Moreover, in assay [2], the “Pre-emergence action: Echinochloa (rating)” value was 10, the “Pre-emergence action: Panicum (rating)” value is listed as 9, the “Pre-emergence action: Scirpus (rating)” value is reported as 9 and the “Pre-emergence action: Sida (rating)” value worked out at 10.

Consider `Cc1nn(CCOCc2nc(C(F)(F)F)ccc2C(=O)C2=C(O)C3CCC(C3)C2=O)c(=O)o1` (centres unmarked) [Compound A6.100], for which, in assay [1], the “Post-emergence action, Amaranthus” value is 9; the “Post-emergence action, Chenopodium” value came to 10; the “Post-emergence action, Echinochloa” value was 7; the “Post-emergence action, Euphorbia” value is listed as 7. In assay [1], the “Post-emergence action, Ipomea” value is 9; the “Post-emergence action, Sinapis” value turned out to be 8; the “Post-emergence action, Stellaria” value is on record as 9; the “Post-emergence action, Xanthium” value was 7. Besides, in assay [2], the “Pre-emergence action: Abutilon (rating)” value came out at 10, the “Pre-emergence action: Amaranthus (rating)” value amounted to 10, the “Pre-emergence action: Chenopodium (rating)” value worked out at 10 and the “Pre-emergence action: Cyperus (rating)” value is 6. Moreover, in assay [2], the “Pre-emergence action: Echinochloa (rating)” value is recorded as 10, the “Pre-emergence action: Panicum (rating)” value turned out to be 10, the “Pre-emergence action: Scirpus (rating)” value stood at 10 and the “Pre-emergence action: Sida (rating)” value was determined as 10.

As for `COc1nn(Cc2nc(C(F)(F)F)ccc2C(=O)C2=C(O)CCCC2=O)c(=O)s1` [Compound A1.091], in assay [1], the “Post-emergence action, Amaranthus” value is given as 9; the “Post-emergence action, Chenopodium” value was 10; the “Post-emergence action, Echinochloa” value was 9; the “Post-emergence action, Euphorbia” value turned out to be 8. In addition, in assay [1], the “Post-emergence action, Ipomea” value is given as 9; the “Post-emergence action, Sinapis” value was found to be 8; the “Post-emergence action, Stellaria” value is 10; the “Post-emergence action, Xanthium” value turned out to be 9. Moreover, in assay [2], the “Pre-emergence action: Abutilon (rating)” value was found to be 10, the “Pre-emergence action: Amaranthus (rating)” value came out at 8, the “Pre-emergence action: Chenopodium (rating)” value was 9 and the “Pre-emergence action: Cyperus (rating)” value is 8. Besides, in assay [2], the “Pre-emergence action: Echinochloa (rating)” value came out at 9, the “Pre-emergence action: Panicum (rating)” value was 4, the “Pre-emergence action: Scirpus (rating)” value turned out to be 9 and the “Pre-emergence action: Sida (rating)” value worked out at 7.

For the compound `Cc1nn(Cc2nc(C(F)(F)F)ccc2C(=O)C2=C(O)C3CCC(C3)C2=O)c(=O)s1` (centres unmarked) [Compound A6.079], in assay [2], the “Pre-emergence action: Abutilon (rating)” value was 10, the “Pre-emergence action: Amaranthus (rating)” value is 7, the “Pre-emergence action: Chenopodium (rating)” value is 10 and the “Pre-emergence action: Cyperus (rating)” value stood at 6. Also, in assay [2], the “Pre-emergence action: Echinochloa (rating)” value turned out to be 7, the “Pre-emergence action: Panicum (rating)” value is on record as 9, the “Pre-emergence action: Scirpus (rating)” value worked out at 9 and the “Pre-emergence action: Sida (rating)” value was determined as 6.

On to `Cn1ncn(Cc2nc(C(F)(F)F)ccc2C(=O)C2=C(O)C3CCC(C3)C2=O)c1=O` (centres unmarked) [Compound A6.073], for which, in assay [1], the “Post-emergence action, Amaranthus” value was determined as 10; the “Post-emergence action, Chenopodium” value is given as 10; the “Post-emergence action, Echinochloa” value is listed as 9; the “Post-emergence action, Euphorbia” value came to 9. Also, in assay [1], the “Post-emergence action, Ipomea” value is recorded as 10; the “Post-emergence action, Sinapis” value came to 10; the “Post-emergence action, Stellaria” value turned out to be 9; the “Post-emergence action, Xanthium” value is 9. In addition, in assay [2], the “Pre-emergence action: Abutilon (rating)” value came out at 10, the “Pre-emergence action: Amaranthus (rating)” value is listed as 9, the “Pre-emergence action: Chenopodium (rating)” value is given as 10 and the “Pre-emergence action: Cyperus (rating)” value worked out at 7. In addition, in assay [2], the “Pre-emergence action: Echinochloa (rating)” value turned out to be 0, the “Pre-emergence action: Panicum (rating)” value was determined as 10, the “Pre-emergence action: Scirpus (rating)” value turned out to be 10 and the “Pre-emergence action: Sida (rating)” value is listed as 9.

On to `CC(C)c1cn(-c2ccccc2)c(=O)n1Cc1nc(C(F)(F)F)ccc1C(=O)c1cnn(C)c1O` [Compound B1.158], for which, in assay [1], the “Post-emergence action, Amaranthus” value came to 7; the “Post-emergence action, Chenopodium” value is recorded as 8; the “Post-emergence action, Echinochloa” value was 4; the “Post-emergence action, Euphorbia” value came to 7. Moreover, in assay [1], the “Post-emergence action, Ipomea” value is reported as 8; the “Post-emergence action, Sinapis” value was 7; the “Post-emergence action, Stellaria” value is reported as 7; the “Post-emergence action, Xanthium” value came to 5.

Regarding `CCOc1nn(Cc2nc(C(F)(F)F)ccc2C(=O)c2cnn(C)c2O)c(=O)n1CC` [Compound B1.050], in assay [1], the “Post-emergence action, Amaranthus” value is listed as 9; the “Post-emergence action, Chenopodium” value is recorded as 9; the “Post-emergence action, Echinochloa” value came to 4; the “Post-emergence action, Euphorbia” value is 9. In addition, in assay [1], the “Post-emergence action, Ipomea” value amounted to 7; the “Post-emergence action, Sinapis” value is on record as 9; the “Post-emergence action, Stellaria” value amounted to 7; the “Post-emergence action, Xanthium” value is 8.

On to `Cc1nn(CCOCc2nc(C(F)(F)F)ccc2C(=O)C2=C(O)C3CCC(C3)C2=O)c(=O)s1` (centres unmarked) [Compound A6.082], for which, in assay [1], the “Post-emergence action, Amaranthus” value was 8; the “Post-emergence action, Chenopodium” value was 9; the “Post-emergence action, Echinochloa” value came to 7; the “Post-emergence action, Euphorbia” value is recorded as 7. For the same compound, in assay [1], the “Post-emergence action, Ipomea” value came out at 8; the “Post-emergence action, Sinapis” value was 5; the “Post-emergence action, Stellaria” value is 9; the “Post-emergence action, Xanthium” value came to 7.
